According to patent US20210009542A1 (Calico Life Sciences LLC, priority 2018, published 2021):
Where a name gives a salt, the structure may show the parent alone.

Target: T1, His tagged PTPN2 (TC45) protein (Homo sapiens, UniProt P17706)
T1 construct: made in house
T1 sequence (P17706 with tags, fused parts or gaps isoform P17706-2): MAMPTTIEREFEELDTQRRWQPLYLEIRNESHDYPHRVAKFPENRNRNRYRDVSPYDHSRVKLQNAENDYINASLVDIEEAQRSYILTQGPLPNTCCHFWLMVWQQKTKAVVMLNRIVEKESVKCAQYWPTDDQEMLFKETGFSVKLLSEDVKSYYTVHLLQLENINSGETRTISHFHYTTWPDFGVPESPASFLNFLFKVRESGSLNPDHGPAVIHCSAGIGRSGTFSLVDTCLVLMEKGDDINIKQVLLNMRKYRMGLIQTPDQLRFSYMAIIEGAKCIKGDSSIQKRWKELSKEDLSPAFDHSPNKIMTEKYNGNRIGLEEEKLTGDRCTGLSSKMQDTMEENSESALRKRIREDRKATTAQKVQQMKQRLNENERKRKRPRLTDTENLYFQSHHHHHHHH
Experiment: Mobility shift assay (MSA) for potency of PTPN2 inhibitors
Assay type: biochemical
Details: read-out: PTPN2 MSA IC50
Description: Compound activity was determined using in house His tagged PTPN2 (TC45) protein (SEQ ID NO: 1) in an in vitro enzymatic reaction. The enzymatic assay used to determine activity was a mobility shift assay using a LabChip EZ Reader by Caliper Life Sciences. The enzymatic reaction was carried out in assay buffer (50 mM HEPES pH 7.5, 1 mM EGTA, 10 mM EDTA, 0.01% Tween® 20, and 2 mM DTT). The compounds were dispensed on a white 384 well ProxiPlate™ (PerkinElmer Catalog #6008289) plate using the Labcyte Echo at varying concentrations (12 point, 1:3 dilution). The enzyme (at 0.5 nM) was incubated with compound for 10 minutes at room temperature. Then the substrate (phosphorylated insulin receptor probe sequence: ((OG488)-(NH—CH2—CH2—O—CH2—CH2—O—CH2—CO)-T-R-D-I-(PY)-E-T-D-Y-Y-R-K-K-NH2) (SEQ ID NO: 2) was added at […] to the plates and incubated for another 10 minutes at room temperature. Finally, a quench solution (water and 4-bromo-3-(2-oxo-2-propoxyethoxy)-5-(3-{[1-(phenylmethanesulfonyl)piperidin-4-yl]amino}phenyl)thiophene-2-carboxylic acid) was added to the plates, which were then run on the EZ Reader (excitation 488 nm, emission 530 nm) to measure % conversion (the amount of phosphorylated substrate which was de-phosphorylated by PTPN2). […] The % inhibition was then used to calculate the IC50 values.

Structure (SMILES): O=C1CN(c2c(O)cc3ccc(OCc4cn[nH]c4)cc3c2F)S(=O)(=O)N1 [Compound 133, 5-{1-fluoro-3-hydroxy-7-[(1H-pyrazol-4-yl)methoxy]naphthalen-2-yl}-1λ6,2,5-thiadiazolidine-1,1,3-trione]
- IC50: 1 to 10 nM

Structure (SMILES): CC(C)COc1ccc2cc(O)c(N3CC(=O)NS3(=O)=O)c(F)c2c1 [Compound 134, 5-[1-fluoro-3-hydroxy-7-(2-methylpropoxy)naphthalen-2-yl]-1λ^6,2,5-thiadiazolidine-1,1,3-trione]
- IC50: > 100 nM

Structure (SMILES): O=C1CN(c2c(O)cc3ccc(C(=O)NCC4CC4)cc3c2F)S(=O)(=O)N1 [Compound 136, N-(cyclopropylmethyl)-8-fluoro-6-hydroxy-7-(1,1,4-trioxo-1λ^6,2,5-thiadiazolidin-2-yl)naphthalene-2-carboxamide]
- IC50: 1 to 10 nM

Structure (SMILES): O=C1CN(c2c(O)cc3ccc(OCCNCCOC(F)(F)F)cc3c2F)S(=O)(=O)N1 [Compound 137, 5-[1-fluoro-3-hydroxy-7-(2-{[2-(trifluoromethoxy)ethyl]amino}ethoxy)naphthalen-2-yl]-1λ^6,2,5-thiadiazolidine-1,1,3-trione]
- IC50: 1 to 10 nM

Structure (SMILES): COCCNCCOc1ccc2cc(O)c(N3CC(=O)NS3(=O)=O)c(F)c2c1 [Compound 138, 5-(1-fluoro-3-hydroxy-7-{2-[(2-methoxyethyl)amino]ethoxy}naphthalen-2-yl)-1λ^6,2,5-thiadiazolidine-1,1,3-trione]
- IC50: 1 to 10 nM

Structure (SMILES): CNCCCc1ccc2cc(O)c(N3CC(=O)NS3(=O)=O)c(F)c2c1 [Compound 139, 5-{1-fluoro-3-hydroxy-7-[3-(methylamino)propyl]naphthalen-2-yl}-1λ^6,2,5-thiadiazolidine-1,1,3-trione]
- IC50: 1 to 10 nM

Structure (SMILES): CCNCCCc1ccc2cc(O)c(N3CC(=O)NS3(=O)=O)c(F)c2c1 [Compound 140, 5-{7-[3-(ethylamino)propyl]-1-fluoro-3-hydroxynaphthalen-2-yl}-1λ^6,2,5-thiadiazolidine-1,1,3-trione]
- IC50: 1 to 10 nM

Structure (SMILES): O=C1CN(c2c(O)cc3ccc(OCCNC4CC4)cc3c2F)S(=O)(=O)N1 [Compound 142, 5-{7-[2-(cyclopropylamino)ethoxy]-1-fluoro-3-hydroxynaphthalen-2-yl}-1λ^6,2,5-thiadiazolidine-1,1,3-trione]
- IC50: 1 to 10 nM

Structure (SMILES): CNCCOc1ccc2cc(O)c(N3CC(=O)NS3(=O)=O)c(F)c2c1 [Compound 143, 5-{1-fluoro-3-hydroxy-7-[2-(methylamino)ethoxy]naphthalen-2-yl}-1λ^6,2,5-thiadiazolidine-1,1,3-trione]
- IC50: 1 to 10 nM

Structure (SMILES): CCNCCOc1ccc2cc(O)c(N3CC(=O)NS3(=O)=O)c(F)c2c1 [Compound 144, 5-{7-[2-(ethylamino)ethoxy]-1-fluoro-3-hydroxynaphthalen-2-yl}-1λ^6,2,5-thiadiazolidine-1,1,3-trione]
- IC50: 1 to 10 nM

Structure (SMILES): CC(C)NCCOc1ccc2cc(O)c(N3CC(=O)NS3(=O)=O)c(F)c2c1 [Compound 145, 5-(1-fluoro-3-hydroxy-7-{2-[(propan-2-yl)amino]ethoxy}naphthalen-2-yl)-1λ^6,2,5-thiadiazolidine-1,1,3-trione]
- IC50: 10 to 100 nM

Structure (SMILES): CCP(=O)(CC)CCCOc1ccc2cc(O)c(N3CC(=O)NS3(=O)=O)c(F)c2c1 [Compound 146, 5-{7-[3-(diethylphosphoryl)propoxy]-1-fluoro-3-hydroxynaphthalen-2-yl}-1λ^6,2,5-thiadiazolidine-1,1,3-trione]
- IC50: 1 to 10 nM

Structure (SMILES): CC(C)CCNc1ccc2c(F)c(O)c(N3CC(=O)NS3(=O)=O)c(F)c2c1 [Compound 148, 5-{1,4-difluoro-3-hydroxy-7-[(3-methylbutyl)amino]naphthalen-2-yl}-1λ^6,2,5-thiadiazolidine-1,1,3-trione]
- IC50: 1 to 10 nM

Structure (SMILES): C[C@@H](O)CCOc1ccc2cc(O)c(N3CC(=O)NS3(=O)=O)c(F)c2c1 [Compound 149, 5-{1-fluoro-3-hydroxy-7-[(3R)-3-hydroxybutoxy]naphthalen-2-yl}-1λ^6,2,5-thiadiazolidine-1,1,3-trione]
- IC50: 1 to 10 nM

Structure (SMILES): C[C@@H](O)CCCc1ccc2cc(O)c(N3CC(=O)NS3(=O)=O)c(F)c2c1 [Compound 151, 5-{1-fluoro-3-hydroxy-7-[(4R)-4-hydroxypentyl]naphthalen-2-yl}-1λ^6,2,5-thiadiazolidine-1,1,3-trione]
- IC50: 1 to 10 nM

Structure (SMILES): C[C@H](O)CCCc1ccc2cc(O)c(N3CC(=O)NS3(=O)=O)c(F)c2c1 [Compound 153, 5-{1-fluoro-3-hydroxy-7-[(4S)-4-hydroxypentyl]naphthalen-2-yl}-1λ^6,2,5-thiadiazolidine-1,1,3-trione]
- IC50: 1 to 10 nM

Structure (SMILES): COCC1(CCOc2ccc3cc(O)c(N4CC(=O)NS4(=O)=O)c(F)c3c2)CC1 [Compound 160, 5-(1-fluoro-3-hydroxy-7-{2-[1-(methoxymethyl)cyclopropyl]ethoxy}naphthalen-2-yl)-1λ^6,2,5-thiadiazolidine-1,1,3-trione]
- IC50: 1 to 10 nM

Structure (SMILES): O=C1CN(c2c(O)cc3ccc(CNCC4CC4)cc3c2F)S(=O)(=O)N1 [Compound 161, 5-(7-{[(cyclopropylmethyl)amino]methyl}-1-fluoro-3-hydroxynaphthalen-2-yl)-1λ^6,2,5-thiadiazolidine-1,1,3-trione]
- IC50: 10 to 100 nM

Structure (SMILES): CC(C)OCCNc1ccc2cc(O)c(N3CC(=O)NS3(=O)=O)c(F)c2c1 [Compound 172, 5-[1-fluoro-3-hydroxy-7-({2-[(propan-2-yl)oxy]ethyl}amino)naphthalen-2-yl]-1λ^6,2,5-thiadiazolidine-1,1,3-trione]
- IC50: 1 to 10 nM

Structure (SMILES): O=C1CN(c2c(O)cc3ccc(CCO)cc3c2F)S(=O)(=O)N1 [Compound 175, 5-[1-fluoro-3-hydroxy-7-(2-hydroxyethyl)naphthalen-2-yl]-1λ^6,2,5-thiadiazolidine-1,1,3-trione, Ammonium Salt]
- IC50: 10 to 100 nM

Structure (SMILES): O=C1CN(c2c(O)cc3ccc(OCCCn4cccn4)cc3c2F)S(=O)(=O)N1 [Compound 183, 5-{1-fluoro-3-hydroxy-7-[3-(H-pyrazol-1-yl)propoxy]naphthalen-2-yl}-1λ^6,2,5-thiadiazolidine-1,1,3-trione]
- IC50: 1 to 10 nM

Structure (SMILES): O=C1CN(c2c(O)cc3ccc(CO)cc3c2F)S(=O)(=O)N1 [Compound 185, 5-[1-fluoro-3-hydroxy-7-(hydroxymethyl)naphthalen-2-yl]-1λ^6,2,5-thiadiazolidine-1,1,3-trione]
- IC50: 1 to 10 nM

Structure (SMILES): O=C1CN(c2c(O)cc3ccc(OCCn4cccn4)cc3c2F)S(=O)(=O)N1 [Compound 188, 5-{1-fluoro-3-hydroxy-7-[2-(1H-pyrazol-1-yl)ethoxy]naphthalen-2-yl}-1λ^6,2,5-thiadiazolidine-1,1,3-trione]
- IC50: 1 to 10 nM

Structure (SMILES): O=C1CN(c2c(O)cc3ccc(C4CCCO4)cc3c2F)S(=O)(=O)N1 (stereo not shown) [Compound 190]
- IC50: 1 to 10 nM

Structure (SMILES): O=C1CN(c2c(O)cc3ccc(C4CCCNC4)cc3c2F)S(=O)(=O)N1 (stereo not shown) [Compound 191, 5-[1-fluoro-3-hydroxy-7-(piperidin-3-yl)naphthalen-2-yl]-1λ^6,2,5-thiadiazolidine-1,1,3-trione]
- IC50: 1 to 10 nM

Structure (SMILES): Nc1cccc(CS(=O)(=O)N2CC=C(c3ccc4cc(O)c(N5CC(=O)NS5(=O)=O)c(F)c4c3)C2)c1 [Compound 194, 5-(7-{1-[(3-aminophenyl)methanesulfonyl]-2,5-dihydro-1H-pyrrol-3-yl}-1-fluoro-3-hydroxynaphthalen-2-yl)-1λ^6,2,5-thiadiazolidine-1,1,3-trione]
- IC50: < 1 nM

Structure (SMILES): O=C1CN(c2c(O)cc3ccc(CC(F)F)cc3c2F)S(=O)(=O)N1 [Compound 196, 5-[7-(2,2-difluoroethyl)-1-fluoro-3-hydroxynaphthalen-2-yl]-1λ^6,2,5-thiadiazolidine-1,1,3-trione]
- IC50: 1 to 10 nM

Structure (SMILES): O=C1CN(c2c(O)cc3ccc(OCC(F)(F)F)cc3c2F)S(=O)(=O)N1 [Compound 197, 5-[1-fluoro-3-hydroxy-7-(2,2,2-trifluoroethoxy)naphthalen-2-yl]-1λ^6,2,5-thiadiazolidine-1,1,3-trione]
- IC50: 1 to 10 nM

Structure (SMILES): O=C1CN(c2c(O)cc3ccc(NCC4CC4)cc3c2F)S(=O)(=O)N1 [Compound 202, 5-{7-[(cyclopropylmethyl)amino]-1-fluoro-3-hydroxynaphthalen-2-yl}-1λ^6,2,5-thiadiazolidine-1,1,3-trione]
- IC50: 1 to 10 nM

Structure (SMILES): CC(C)CCCc1ccc2cc(O)c(N3CC(=O)NS3(=O)=O)c(F)c2c1 [Compound 219, 5-[1-fluoro-3-hydroxy-7-(4-methylpentyl)naphthalen-2-yl]-1λ^6,2,5-thiadiazolidine-1,1,3-trione]
- IC50: 1 to 10 nM

Structure (SMILES): Cc1c[nH]c(-c2ccc3cc(O)c(N4CC(=O)NS4(=O)=O)c(F)c3c2)n1 [Compound 225, 5-[1-fluoro-3-hydroxy-7-(4-methyl-1H-imidazol-2-yl)naphthalen-2-yl]-1λ^6,2,5-thiadiazolidine-1,1,3-trione]
- IC50: 10 to 100 nM
